Values belong to the compound of their own block, whether it stands above or below them.
Tests used:
[1] = tested on: T1, Receptor-type tyrosine-protein kinase FLT3 (Homo sapiens), P36888 [N841I]; assay: Selectivity interaction (KinomeScan (DiscoverX)) EUB0000239b FLT3; conditions: at 1 µM
T1 sequence (whole entry): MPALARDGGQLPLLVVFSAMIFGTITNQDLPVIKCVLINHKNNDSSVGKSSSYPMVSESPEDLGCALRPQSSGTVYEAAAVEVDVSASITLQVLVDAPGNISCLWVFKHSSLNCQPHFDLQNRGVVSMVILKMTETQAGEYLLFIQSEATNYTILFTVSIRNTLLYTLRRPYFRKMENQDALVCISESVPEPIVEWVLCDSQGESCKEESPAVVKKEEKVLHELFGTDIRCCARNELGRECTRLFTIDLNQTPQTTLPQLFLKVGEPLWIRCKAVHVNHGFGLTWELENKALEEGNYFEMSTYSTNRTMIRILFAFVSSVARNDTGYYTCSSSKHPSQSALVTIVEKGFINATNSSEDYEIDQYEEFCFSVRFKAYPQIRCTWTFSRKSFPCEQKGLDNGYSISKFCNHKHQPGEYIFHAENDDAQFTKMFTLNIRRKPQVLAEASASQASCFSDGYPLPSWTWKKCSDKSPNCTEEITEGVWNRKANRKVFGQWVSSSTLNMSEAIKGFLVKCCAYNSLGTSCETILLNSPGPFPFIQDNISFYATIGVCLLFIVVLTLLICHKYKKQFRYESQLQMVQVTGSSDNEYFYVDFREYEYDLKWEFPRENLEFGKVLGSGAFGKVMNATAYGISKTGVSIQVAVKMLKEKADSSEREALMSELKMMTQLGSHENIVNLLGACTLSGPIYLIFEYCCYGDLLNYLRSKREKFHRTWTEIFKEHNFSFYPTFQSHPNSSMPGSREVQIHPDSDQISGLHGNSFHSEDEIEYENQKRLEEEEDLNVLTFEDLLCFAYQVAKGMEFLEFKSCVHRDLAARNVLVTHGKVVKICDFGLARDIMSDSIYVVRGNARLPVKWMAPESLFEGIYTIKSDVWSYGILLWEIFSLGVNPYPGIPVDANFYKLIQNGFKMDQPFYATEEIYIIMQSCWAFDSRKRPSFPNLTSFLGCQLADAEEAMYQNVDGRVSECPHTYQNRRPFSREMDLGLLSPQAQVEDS

[2] = target: Cathepsin G (Homo sapiens) (UniProt P08311); assay: Selectivity interaction (Protease panel (enzymatic assay)) EUB0000239b CTSG; conditions: at 10 µM
Cathepsin G (Homo sapiens), sequence (P08311 whole entry, canonical isoform): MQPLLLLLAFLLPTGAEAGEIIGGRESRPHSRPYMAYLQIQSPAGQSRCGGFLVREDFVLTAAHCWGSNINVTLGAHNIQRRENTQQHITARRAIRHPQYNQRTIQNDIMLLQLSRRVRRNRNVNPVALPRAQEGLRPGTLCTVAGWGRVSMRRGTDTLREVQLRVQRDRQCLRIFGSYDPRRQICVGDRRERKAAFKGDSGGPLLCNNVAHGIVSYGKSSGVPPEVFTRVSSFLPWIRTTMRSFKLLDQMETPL

[3] = tested on: Phosphatidylinositol 4,5-bisphosphate 3-kinase catalytic subunit alpha isoform (Homo sapiens), P42336 [E545K]; assay: Selectivity interaction (KinomeScan (DiscoverX)) EUB0000239b PIK3CA; conditions: at 1 µM
Phosphatidylinositol 4,5-bisphosphate 3-kinase catalytic subunit alpha isoform (Homo sapiens), P42336 [E545K], sequence (P42336 whole entry E545K, canonical isoform): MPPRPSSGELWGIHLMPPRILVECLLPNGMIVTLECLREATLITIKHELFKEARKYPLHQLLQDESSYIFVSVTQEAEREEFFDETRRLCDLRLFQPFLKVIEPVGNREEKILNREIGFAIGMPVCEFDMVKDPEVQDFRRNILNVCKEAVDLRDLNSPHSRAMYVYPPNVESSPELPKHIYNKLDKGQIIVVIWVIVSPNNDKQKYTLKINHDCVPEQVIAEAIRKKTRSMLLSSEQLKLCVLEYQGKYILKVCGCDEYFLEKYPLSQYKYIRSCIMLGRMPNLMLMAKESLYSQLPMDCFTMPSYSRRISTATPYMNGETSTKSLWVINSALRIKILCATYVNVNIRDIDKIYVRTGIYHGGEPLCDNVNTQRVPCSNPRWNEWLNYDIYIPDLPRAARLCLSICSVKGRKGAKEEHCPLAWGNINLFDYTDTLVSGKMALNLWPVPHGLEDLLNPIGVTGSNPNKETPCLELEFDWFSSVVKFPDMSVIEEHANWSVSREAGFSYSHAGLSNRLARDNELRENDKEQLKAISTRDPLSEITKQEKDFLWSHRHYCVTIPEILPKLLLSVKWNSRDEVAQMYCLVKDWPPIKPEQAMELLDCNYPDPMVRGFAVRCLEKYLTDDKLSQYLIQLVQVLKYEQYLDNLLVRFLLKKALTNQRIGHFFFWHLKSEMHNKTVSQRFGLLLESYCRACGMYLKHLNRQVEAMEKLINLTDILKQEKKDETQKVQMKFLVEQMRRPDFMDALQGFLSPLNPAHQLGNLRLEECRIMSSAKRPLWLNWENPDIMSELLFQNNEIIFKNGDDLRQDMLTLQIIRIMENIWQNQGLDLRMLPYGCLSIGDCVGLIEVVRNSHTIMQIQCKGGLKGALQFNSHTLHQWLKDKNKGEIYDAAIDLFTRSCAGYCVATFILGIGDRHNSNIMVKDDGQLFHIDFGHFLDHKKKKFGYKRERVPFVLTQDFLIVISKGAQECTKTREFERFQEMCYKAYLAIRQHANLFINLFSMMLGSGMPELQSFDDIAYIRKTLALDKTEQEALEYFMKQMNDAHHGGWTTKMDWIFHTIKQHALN

[4] = target: Serine/threonine-protein kinase Nek3 (Homo sapiens) (UniProt P51956); assay: Selectivity interaction (KinomeScan (DiscoverX)) EUB0000239b NEK3; conditions: at 1 µM
[5] = target: Cyclin-dependent kinase 8 (Homo sapiens) (UniProt P49336); assay: Selectivity interaction (KinomeScan (DiscoverX)) EUB0000239b CDK8; conditions: at 1 µM
[6] = target: Sodium/nucleoside cotransporter 2 (Homo sapiens) (UniProt O43868); assay: Selectivity interaction (Enzyme panel (receptors, ion channels, enzymes, and transporters)) EUB0000239b SLC28A2; conditions: at 10 µM
Sodium/nucleoside cotransporter 2 (Homo sapiens), sequence (O43868 whole entry): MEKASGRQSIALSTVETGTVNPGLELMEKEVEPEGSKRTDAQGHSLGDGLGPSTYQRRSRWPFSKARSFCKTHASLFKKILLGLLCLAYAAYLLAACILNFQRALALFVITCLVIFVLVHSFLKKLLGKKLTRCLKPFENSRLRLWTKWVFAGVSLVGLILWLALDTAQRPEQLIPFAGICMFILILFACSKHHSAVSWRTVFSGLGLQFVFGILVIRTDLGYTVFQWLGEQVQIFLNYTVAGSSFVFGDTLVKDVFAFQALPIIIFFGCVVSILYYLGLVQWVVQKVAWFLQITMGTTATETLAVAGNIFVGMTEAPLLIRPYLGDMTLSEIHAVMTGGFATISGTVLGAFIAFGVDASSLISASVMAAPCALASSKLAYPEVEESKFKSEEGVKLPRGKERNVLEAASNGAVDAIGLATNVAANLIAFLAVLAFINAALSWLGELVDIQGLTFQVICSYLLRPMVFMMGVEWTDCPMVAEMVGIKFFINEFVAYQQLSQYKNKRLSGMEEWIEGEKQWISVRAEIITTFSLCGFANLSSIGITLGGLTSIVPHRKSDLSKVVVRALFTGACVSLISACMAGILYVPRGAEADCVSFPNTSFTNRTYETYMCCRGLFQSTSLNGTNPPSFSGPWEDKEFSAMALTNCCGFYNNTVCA

[7] = target: Sigma intracellular receptor 2 (Homo sapiens, UniProt Q5BJF2); assay: Selectivity interaction (GPCR panel (PDSP screen)) EUB0000239b TMEM97; conditions: at 10 µM
[8] = target: Microtubule-associated serine/threonine-protein kinase 1 (Homo sapiens) (UniProt Q9Y2H9); assay: Selectivity interaction (KinomeScan (DiscoverX)) EUB0000239b MAST1; conditions: at 1 µM
[9] = target: Homeodomain-interacting protein kinase 1 (Homo sapiens, UniProt Q86Z02); assay: Selectivity interaction (KinomeScan (DiscoverX)) EUB0000239b HIPK1; conditions: at 1 µM
Homeodomain-interacting protein kinase 1, sequence (Q86Z02 whole entry, looked up): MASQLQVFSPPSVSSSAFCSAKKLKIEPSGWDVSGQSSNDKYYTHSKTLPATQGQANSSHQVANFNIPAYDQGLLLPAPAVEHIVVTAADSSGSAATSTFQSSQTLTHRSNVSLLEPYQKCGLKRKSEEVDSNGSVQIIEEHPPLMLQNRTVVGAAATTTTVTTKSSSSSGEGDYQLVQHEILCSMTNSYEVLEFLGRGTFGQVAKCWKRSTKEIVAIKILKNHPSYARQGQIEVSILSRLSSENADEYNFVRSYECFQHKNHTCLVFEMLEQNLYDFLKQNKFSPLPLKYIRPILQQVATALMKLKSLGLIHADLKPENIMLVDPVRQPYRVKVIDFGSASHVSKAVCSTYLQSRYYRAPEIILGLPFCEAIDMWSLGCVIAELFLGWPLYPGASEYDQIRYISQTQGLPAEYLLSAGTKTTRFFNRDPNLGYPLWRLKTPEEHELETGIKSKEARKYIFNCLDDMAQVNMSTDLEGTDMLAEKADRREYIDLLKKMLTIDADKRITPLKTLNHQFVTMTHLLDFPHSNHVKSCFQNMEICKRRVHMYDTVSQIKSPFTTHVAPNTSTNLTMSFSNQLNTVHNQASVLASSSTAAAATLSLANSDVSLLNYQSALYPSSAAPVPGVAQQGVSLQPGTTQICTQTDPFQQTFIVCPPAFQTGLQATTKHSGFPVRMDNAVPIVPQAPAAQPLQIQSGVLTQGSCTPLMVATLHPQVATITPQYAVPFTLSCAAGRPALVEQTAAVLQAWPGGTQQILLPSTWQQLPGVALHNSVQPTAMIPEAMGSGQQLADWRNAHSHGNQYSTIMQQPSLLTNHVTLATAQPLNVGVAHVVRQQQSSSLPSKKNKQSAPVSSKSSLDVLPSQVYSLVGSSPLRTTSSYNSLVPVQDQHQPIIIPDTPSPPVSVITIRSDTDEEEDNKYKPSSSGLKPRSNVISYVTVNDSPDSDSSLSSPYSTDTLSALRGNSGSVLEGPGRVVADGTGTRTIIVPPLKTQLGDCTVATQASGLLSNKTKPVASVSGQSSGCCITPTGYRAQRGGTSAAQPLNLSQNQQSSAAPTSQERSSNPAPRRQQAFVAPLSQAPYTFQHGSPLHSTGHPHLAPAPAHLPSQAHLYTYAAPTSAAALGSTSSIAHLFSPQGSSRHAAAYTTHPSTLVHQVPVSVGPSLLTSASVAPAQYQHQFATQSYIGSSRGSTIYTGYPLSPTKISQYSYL

[10] = target: Dual specificity tyrosine-phosphorylation-regulated kinase 1B (Homo sapiens, UniProt Q9Y463); assay: Selectivity interaction (KinomeScan (DiscoverX)) EUB0000733a DYRK1B; conditions: at 1 µM
Dual specificity tyrosine-phosphorylation-regulated kinase 1B, sequence (Q9Y463 whole entry, looked up): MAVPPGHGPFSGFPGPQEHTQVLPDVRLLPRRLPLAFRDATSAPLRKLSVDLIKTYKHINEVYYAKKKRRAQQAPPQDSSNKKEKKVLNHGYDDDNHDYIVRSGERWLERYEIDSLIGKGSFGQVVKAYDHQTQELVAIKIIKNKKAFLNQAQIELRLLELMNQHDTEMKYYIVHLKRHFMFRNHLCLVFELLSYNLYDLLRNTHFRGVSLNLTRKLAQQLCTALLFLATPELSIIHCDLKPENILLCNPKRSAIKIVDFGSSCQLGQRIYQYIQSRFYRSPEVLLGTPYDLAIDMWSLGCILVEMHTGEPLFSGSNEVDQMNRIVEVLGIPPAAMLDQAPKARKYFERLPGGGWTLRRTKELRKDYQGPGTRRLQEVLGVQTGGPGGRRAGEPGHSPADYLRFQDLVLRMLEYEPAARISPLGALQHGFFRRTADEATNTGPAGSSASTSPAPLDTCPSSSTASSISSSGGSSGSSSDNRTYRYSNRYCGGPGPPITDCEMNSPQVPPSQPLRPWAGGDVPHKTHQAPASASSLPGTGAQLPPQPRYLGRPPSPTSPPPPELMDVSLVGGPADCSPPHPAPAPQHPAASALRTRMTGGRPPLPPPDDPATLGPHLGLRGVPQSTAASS

[11] = target: T2, Serine/threonine-protein kinase TAO3 (Homo sapiens) (UniProt Q9H2K8); assay: Selectivity interaction (KinomeScan (DiscoverX)) EUB0000706a TAOK3; conditions: at 1 µM
T2 sequence (whole entry): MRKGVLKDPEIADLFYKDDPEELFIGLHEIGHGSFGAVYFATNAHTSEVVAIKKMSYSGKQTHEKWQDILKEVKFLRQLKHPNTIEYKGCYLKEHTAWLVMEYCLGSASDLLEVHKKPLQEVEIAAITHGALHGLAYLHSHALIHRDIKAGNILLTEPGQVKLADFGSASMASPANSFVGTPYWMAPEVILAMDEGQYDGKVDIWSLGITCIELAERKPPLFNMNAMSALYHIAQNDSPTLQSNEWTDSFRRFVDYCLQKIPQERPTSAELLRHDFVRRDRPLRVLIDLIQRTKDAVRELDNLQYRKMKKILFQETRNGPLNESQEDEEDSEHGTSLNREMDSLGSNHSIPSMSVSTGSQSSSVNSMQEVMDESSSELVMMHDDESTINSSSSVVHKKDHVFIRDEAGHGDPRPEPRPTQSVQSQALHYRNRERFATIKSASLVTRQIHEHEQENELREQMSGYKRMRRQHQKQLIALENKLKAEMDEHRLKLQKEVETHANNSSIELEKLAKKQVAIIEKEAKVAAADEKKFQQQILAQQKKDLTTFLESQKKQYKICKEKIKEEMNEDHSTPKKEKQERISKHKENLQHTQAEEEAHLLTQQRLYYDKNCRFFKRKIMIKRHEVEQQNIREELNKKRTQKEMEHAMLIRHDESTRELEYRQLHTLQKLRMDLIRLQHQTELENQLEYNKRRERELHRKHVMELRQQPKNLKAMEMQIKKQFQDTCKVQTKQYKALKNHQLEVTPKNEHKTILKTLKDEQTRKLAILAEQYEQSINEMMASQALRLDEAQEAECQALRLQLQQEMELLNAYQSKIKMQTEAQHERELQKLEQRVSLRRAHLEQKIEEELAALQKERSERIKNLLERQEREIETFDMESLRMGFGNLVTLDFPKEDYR

[12] = target: T3, Tyrosine-protein kinase JAK3 (Homo sapiens) (UniProt P52333); assay: Selectivity interaction (KinomeScan (DiscoverX)) EUB0000706a JAK3; conditions: at 1 µM
T3 sequence (whole entry): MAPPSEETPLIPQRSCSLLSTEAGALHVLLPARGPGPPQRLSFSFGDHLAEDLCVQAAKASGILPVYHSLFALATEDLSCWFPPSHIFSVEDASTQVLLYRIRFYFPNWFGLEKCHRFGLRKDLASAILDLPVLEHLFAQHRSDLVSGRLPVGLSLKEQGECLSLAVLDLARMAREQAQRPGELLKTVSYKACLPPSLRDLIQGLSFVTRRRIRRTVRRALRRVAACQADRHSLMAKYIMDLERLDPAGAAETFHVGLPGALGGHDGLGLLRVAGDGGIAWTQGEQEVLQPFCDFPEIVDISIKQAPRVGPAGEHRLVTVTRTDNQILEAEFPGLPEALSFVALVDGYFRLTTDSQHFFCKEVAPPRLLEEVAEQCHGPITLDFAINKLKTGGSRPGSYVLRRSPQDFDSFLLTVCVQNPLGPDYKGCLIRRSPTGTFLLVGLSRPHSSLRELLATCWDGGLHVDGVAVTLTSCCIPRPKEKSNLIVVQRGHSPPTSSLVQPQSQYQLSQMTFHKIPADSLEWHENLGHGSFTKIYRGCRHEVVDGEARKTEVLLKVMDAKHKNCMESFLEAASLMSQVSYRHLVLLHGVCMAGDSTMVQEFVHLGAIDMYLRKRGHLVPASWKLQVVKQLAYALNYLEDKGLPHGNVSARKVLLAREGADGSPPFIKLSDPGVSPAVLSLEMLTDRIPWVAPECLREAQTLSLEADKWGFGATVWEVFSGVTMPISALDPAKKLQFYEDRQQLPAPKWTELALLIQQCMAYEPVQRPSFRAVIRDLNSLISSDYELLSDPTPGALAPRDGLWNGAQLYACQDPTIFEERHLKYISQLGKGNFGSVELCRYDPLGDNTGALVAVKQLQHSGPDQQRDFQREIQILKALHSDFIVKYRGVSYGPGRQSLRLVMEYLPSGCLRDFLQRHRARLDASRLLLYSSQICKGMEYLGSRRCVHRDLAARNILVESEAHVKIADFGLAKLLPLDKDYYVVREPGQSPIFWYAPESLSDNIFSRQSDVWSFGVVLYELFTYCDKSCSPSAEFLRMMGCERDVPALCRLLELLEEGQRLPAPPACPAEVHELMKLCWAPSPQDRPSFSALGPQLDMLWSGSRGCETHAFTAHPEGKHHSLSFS

[13] = target: T4, Phosphatidylinositol 4,5-bisphosphate 3-kinase catalytic subunit alpha isoform (Homo sapiens, UniProt P42336); assay: Selectivity interaction (KinomeScan (DiscoverX)) EUB0000706a PIK3CA; conditions: at 1 µM
T4 sequence (P42336 whole entry, canonical isoform): as the sequence (P42336 whole entry E545K, canonical isoform) above, with K545E counted along it

[14] = target: Tyrosine-protein kinase ABL1 (Homo sapiens, UniProt P00519); assay: Selectivity interaction (KinomeScan (DiscoverX)) EUB0000744a ABL1; conditions: at 100 nM
Tyrosine-protein kinase ABL1, sequence (P00519 whole entry, canonical isoform): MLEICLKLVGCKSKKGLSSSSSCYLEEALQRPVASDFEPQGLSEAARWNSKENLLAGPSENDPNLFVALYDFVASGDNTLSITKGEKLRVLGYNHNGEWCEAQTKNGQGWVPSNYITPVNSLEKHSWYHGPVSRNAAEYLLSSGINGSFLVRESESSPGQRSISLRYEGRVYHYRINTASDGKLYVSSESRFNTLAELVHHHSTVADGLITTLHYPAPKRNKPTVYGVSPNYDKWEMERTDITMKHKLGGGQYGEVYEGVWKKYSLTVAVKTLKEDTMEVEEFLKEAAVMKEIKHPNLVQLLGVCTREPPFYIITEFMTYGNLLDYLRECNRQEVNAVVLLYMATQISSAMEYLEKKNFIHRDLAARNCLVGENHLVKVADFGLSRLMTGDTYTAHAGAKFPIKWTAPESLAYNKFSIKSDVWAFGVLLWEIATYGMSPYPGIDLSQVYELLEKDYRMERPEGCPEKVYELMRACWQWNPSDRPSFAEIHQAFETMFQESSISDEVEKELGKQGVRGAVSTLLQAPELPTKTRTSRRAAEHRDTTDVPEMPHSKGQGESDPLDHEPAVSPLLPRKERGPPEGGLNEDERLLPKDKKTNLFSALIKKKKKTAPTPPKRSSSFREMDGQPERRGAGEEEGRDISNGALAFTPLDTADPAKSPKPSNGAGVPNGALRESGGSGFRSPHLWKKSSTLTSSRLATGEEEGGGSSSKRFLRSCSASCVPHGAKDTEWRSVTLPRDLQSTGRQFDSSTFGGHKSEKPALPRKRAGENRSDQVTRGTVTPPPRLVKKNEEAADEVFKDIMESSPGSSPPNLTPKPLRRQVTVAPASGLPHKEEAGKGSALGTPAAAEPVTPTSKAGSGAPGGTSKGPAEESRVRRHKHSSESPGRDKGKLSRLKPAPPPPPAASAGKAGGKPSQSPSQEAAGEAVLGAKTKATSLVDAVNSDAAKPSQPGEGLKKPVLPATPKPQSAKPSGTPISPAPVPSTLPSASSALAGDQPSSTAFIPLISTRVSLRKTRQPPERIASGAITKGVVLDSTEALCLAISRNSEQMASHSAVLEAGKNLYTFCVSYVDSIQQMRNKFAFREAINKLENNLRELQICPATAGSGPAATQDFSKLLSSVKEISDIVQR

[15] = target: T4, Phosphatidylinositol 4,5-bisphosphate 3-kinase catalytic subunit alpha isoform; assay: Selectivity interaction (KinomeScan (DiscoverX)) EUB0000744a PIK3CA; conditions: at 100 nM
[16] = target: T5, Gamma-aminobutyric acid receptor subunit alpha-1 (Homo sapiens) (UniProt P14867); assay: Selectivity interaction (GPCR panel (PDSP screen)) EUB0000546a GABRA1; conditions: at 10 µM
T5 sequence (whole entry): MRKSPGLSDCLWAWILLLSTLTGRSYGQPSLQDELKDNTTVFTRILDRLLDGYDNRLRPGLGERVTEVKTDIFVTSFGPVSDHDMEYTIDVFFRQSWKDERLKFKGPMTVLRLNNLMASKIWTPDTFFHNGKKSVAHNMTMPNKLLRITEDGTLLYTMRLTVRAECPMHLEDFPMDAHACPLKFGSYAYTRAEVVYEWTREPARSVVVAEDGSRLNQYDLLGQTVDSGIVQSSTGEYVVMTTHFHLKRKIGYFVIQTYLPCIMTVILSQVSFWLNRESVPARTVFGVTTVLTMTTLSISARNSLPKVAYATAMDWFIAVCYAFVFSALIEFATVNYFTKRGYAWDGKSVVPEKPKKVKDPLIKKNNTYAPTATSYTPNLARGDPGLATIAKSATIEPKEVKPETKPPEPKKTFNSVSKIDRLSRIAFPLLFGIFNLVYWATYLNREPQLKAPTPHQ

[17] = target: Muscarinic acetylcholine receptor M3 (Homo sapiens) (UniProt P20309); assay: Selectivity interaction (GPCR panel (PDSP screen)) EUB0000546a CHRM3; conditions: at 10 µM

% of control [1]: 23% | % of inhibition [2]: 7% | % of control [3]: 48% | % of control [4]: 40% | % of control [5]: 39% | % of inhibition [6]: 52% | % of inhibition [7]: 49.9% | % of control [8]: 43% | % of control [9]: 40%
SMILES: CO[C@@H](C)c1c(Nc2ccc([C@H](N(C)C(=O)C3CCS(=O)(=O)CC3)C(F)(F)F)cc2)cnc2cc(Cl)nn12

% of control [10]: 53%
SMILES: FC(F)(F)c1ccc2c(c1)nc(-c1cccnc1)n2C1CC1

% of control [11]: 35% | % of control [12]: 12% | % of control [13]: 32%
SMILES: C[C@@H]1CN(c2cc(-c3nn(C)c4ccc(OC5(C)CC5)cc34)ncn2)C[C@H](C)O1

% of control [14]: 53% | % of control [15]: 53%
SMILES: CC(C)CC(=O)N1CCc2nc(-c3ccc(Br)cc3)nc(N(C)Cc3ccccc3)c2C1

% of inhibition [16]: 28% | % of inhibition [17]: 39%
SMILES: C[C@H](c1ccc(F)cc1)N(Cc1ccc(Cl)c(C(=O)O)c1)C(=O)c1cnc2ccccc2c1

Reference: ChEMBL document CHEMBL5212743, “Selectivity Literature for EUbOPEN Chemogenomics Library wave 3” (2023)
